# Laboratory results from ChEMBL document CHEMBL3758095, “Preliminary evaluation of fluoro-pegylated benzyloxybenzenes for quantification of β-amyloid plaques by positron emission tomography” (Eur J Med Chem, 2015).
# Activity calls are given as the source filed them. The calls are words filed in the database; no cut-off is given here.
# Legend:
# Stomach [1] = assay: Biodistribution in iv dosed ICR mouse stomach assessed per organ measured at 10 mins; assay type: ADME, organism-based; conditions: in vivo
# Intestine [2] = assay: Biodistribution in iv dosed ICR mouse intestine assessed per organ measured at 2 mins; assay type: ADME, organism-based; conditions: in vivo
# Stomach [3] = assay: Biodistribution in iv dosed ICR mouse stomach assessed per organ measured at 30 mins; assay type: ADME, organism-based; conditions: in vivo, 0.5 h
# Intestine [4] = assay: Biodistribution in iv dosed ICR mouse intestine assessed per organ measured at 10 mins; assay type: ADME, organism-based; conditions: in vivo
# [5] = Partition coefficient, log D of the compound; assay type: physicochemical; conditions: octanol/water
# Liver [6] = assay: Biodistribution in iv dosed ICR mouse liver measured at 10 mins; assay type: ADME, organism-based; conditions: in vivo
# Brain [7] = assay: Biodistribution in iv dosed ICR mouse brain measured at 2 mins; assay type: ADME, organism-based; conditions: in vivo
# Stomach [8] = assay: Biodistribution in iv dosed ICR mouse stomach assessed per organ measured at 60 mins; assay type: ADME, organism-based; conditions: in vivo, 1 h
# Intestine [9] = assay: Biodistribution in iv dosed ICR mouse intestine assessed per organ measured at 60 mins; assay type: ADME, organism-based; conditions: in vivo, 1 h
# Stomach [10] = assay: Biodistribution in iv dosed ICR mouse stomach assessed per organ measured at 2 mins; assay type: ADME, organism-based; conditions: in vivo
# Intestine [11] = assay: Biodistribution in iv dosed ICR mouse intestine assessed per organ measured at 30 mins; assay type: ADME, organism-based; conditions: in vivo, 0.5 h
# [12] = target: T1, Amyloid-beta precursor protein (Homo sapiens, UniProt P05067); assay: Displacement of [125I]BOB-4 from Amyloid beta (1 to 42) (unknown origin)
# T1 sequence (P05067 whole entry): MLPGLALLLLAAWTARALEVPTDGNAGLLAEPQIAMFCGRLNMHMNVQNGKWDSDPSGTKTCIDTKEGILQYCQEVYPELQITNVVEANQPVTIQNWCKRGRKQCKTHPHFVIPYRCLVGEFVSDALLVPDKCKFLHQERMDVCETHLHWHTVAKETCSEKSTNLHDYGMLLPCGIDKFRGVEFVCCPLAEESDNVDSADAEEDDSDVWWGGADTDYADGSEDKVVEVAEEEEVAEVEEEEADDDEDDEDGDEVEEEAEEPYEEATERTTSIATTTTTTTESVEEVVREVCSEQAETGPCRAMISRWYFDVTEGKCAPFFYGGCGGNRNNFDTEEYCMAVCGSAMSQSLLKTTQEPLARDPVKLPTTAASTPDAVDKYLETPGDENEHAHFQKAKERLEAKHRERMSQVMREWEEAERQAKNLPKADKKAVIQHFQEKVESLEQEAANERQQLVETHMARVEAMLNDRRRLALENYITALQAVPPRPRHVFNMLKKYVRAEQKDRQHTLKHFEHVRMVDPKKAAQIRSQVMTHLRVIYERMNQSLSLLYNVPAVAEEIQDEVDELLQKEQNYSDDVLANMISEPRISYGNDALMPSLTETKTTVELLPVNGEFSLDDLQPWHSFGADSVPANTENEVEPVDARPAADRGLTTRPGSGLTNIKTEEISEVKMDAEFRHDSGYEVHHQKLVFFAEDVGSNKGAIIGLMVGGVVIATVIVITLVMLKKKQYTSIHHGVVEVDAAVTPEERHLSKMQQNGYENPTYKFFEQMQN
# [13] = Metabolic stability in ICR mouse liver assessed as compound remaining at 35 to 45 Mbq, iv measured at 2 mins by HPLC analysis; assay type: ADME, organism-based; conditions: read-out: Stability
# [14] = Metabolic stability in ICR mouse plasma assessed as compound remaining at 35 to 45 Mbq, iv measured at 60 mins by HPLC analysis; assay type: ADME, organism-based; conditions: read-out: Stability
# [15] = Metabolic stability in ICR mouse plasma assessed as compound remaining at 35 to 45 Mbq, iv measured at 30 mins by HPLC analysis; assay type: ADME, organism-based; conditions: read-out: Stability
# Brain [16] = assay: Ratio of drug level in iv dosed ICR mouse brain at 2 to 60 mins; assay type: ADME, organism-based; conditions: in vivo
# [17] = Metabolic stability in ICR mouse brain assessed as compound remaining at 35 to 45 Mbq, iv measured at 2 mins by HPLC analysis; assay type: ADME, organism-based; conditions: read-out: Stability
# [18] = Metabolic stability in ICR mouse plasma assessed as compound remaining at 35 to 45 Mbq, iv measured at 2 mins by HPLC analysis; assay type: ADME, organism-based; conditions: read-out: Stability
# [19] = Metabolic stability in ICR mouse liver assessed as compound remaining at 35 to 45 Mbq, iv measured at 30 mins by HPLC analysis; assay type: ADME, organism-based; conditions: read-out: Stability
# [20] = Metabolic stability in ICR mouse feces assessed as compound remaining at 35 to 45 Mbq, iv measured at 30 mins by HPLC analysis; assay type: ADME, organism-based; conditions: faeces, read-out: Stability
# [21] = Metabolic stability in ICR mouse brain assessed as compound remaining at 35 to 45 Mbq, iv measured at 30 mins by HPLC analysis; assay type: ADME, organism-based; conditions: read-out: Stability
# [22] = Metabolic stability in ICR mouse brain assessed as compound remaining at 35 to 45 Mbq, iv measured at 60 mins by HPLC analysis; assay type: ADME, organism-based; conditions: read-out: Stability
# [23] = Metabolic stability in ICR mouse liver assessed as compound remaining at 35 to 45 Mbq, iv measured at 60 mins by HPLC analysis; assay type: ADME, organism-based; conditions: read-out: Stability
# [24] = target: T1, Amyloid-beta precursor protein; assay: Binding affinity to amyloid beta plaques in white matter of alzheimer's disease patient brain by DANIR 3b staining based autoradiographic analysis; assay type: tissue-based; conditions: tested as the 18F-labelled form
# [25] = target: T1, Amyloid-beta precursor protein; assay: Binding affinity to amyloid beta plaques in alzheimer's disease patient cerebral cortex by DANIR 3b staining based autoradiographic analysis; assay type: tissue-based; conditions: tested as the 18F-labelled form
# [26] = target: T1, Amyloid-beta precursor protein; assay: Binding affinity to amyloid beta plaques in healthy human brain by DANIR 3b staining based autoradiographic analysis; conditions: tested as the 18F-labelled form
# Mus musculus [27] = species on record: Mus musculus; assay: Binding affinity to amyloid beta plaques in white matter of C57BL6 APPswe/PSEN1 Tg mouse brain by DANIR 3b staining based autoradiography analysis; assay type: tissue-based; conditions: tested as the 18F-labelled form
# Mus musculus [28] = species on record: Mus musculus; assay: Binding affinity to amyloid beta plaques in C57BL6 APPswe/PSEN1 Tg mouse cerebral cortex by DANIR 3b staining based autoradiographic analysis; assay type: tissue-based; conditions: tested as the 18F-labelled form
# Mus musculus [29] = species on record: Mus musculus; assay: Binding affinity to amyloid beta plaques in C57BL6 mouse brain by DANIR 3b staining based autoradiographic analysis; assay type: tissue-based; conditions: tested as the 18F-labelled form
# Brain [30] = assay: Ratio of drug level in CD1 mouse brain at 370 kBq measured at 2 to 60 mins; assay type: ADME; conditions: in vivo
# Mus musculus [31] = assay: In vivo binding affinity to amyloid beta in wild type C57BL6 mouse cerebellum at 1 mCi, iv after 20 mins by DANIR 3b staining based autoradiographic analysis; assay type: functional, organism-based; conditions: tested as the 18F-labelled form
# Mus musculus [32] = assay: In vivo binding affinity to amyloid beta in wild type C57BL6 mouse brain cortex at 1 mCi, iv after 20 mins by DANIR 3b staining based autoradiographic analysis; assay type: functional, organism-based; conditions: tested as the 18F-labelled form
# Mus musculus [33] = assay: In vivo binding affinity to amyloid beta plaques in C57BL6 Appswe/PSEN1 Tg mouse hippocampus at 1 mCi, iv after 20 mins by DANIR 3b staining based autoradiographic analysis; assay type: functional, organism-based; conditions: tested as the 18F-labelled form
# Mus musculus [34] = assay: In vivo binding affinity to amyloid beta plaques in C57BL6 Appswe/PSEN1 Tg mouse cerebellum at 1 mCi, iv after 20 mins by DANIR 3b staining based autoradiographic analysis; assay type: functional, organism-based; conditions: tested as the 18F-labelled form
# Mus musculus [35] = assay: In vivo binding affinity to amyloid beta plaques in C57BL6 Appswe/PSEN1 Tg mouse brain cortex at 1 mCi, iv after 20 mins by DANIR 3b staining based autoradiographic analysis; assay type: functional, organism-based; conditions: tested as the 18F-labelled form
# Mus musculus [36] = assay: In vivo binding affinity to amyloid beta in wild type C57BL6 mouse hippocampus at 1 mCi, iv after 20 mins by DANIR 3b staining based autoradiographic analysis; assay type: functional, organism-based; conditions: tested as the 18F-labelled form
# Plasma = assay: Retention time of the compound in ICR mouse plasma at 35 to 45 Mbq, iv by HPLC analysis; assay type: ADME, organism-based
# Liver [37] = assay: Retention time of the compound in ICR mouse liver at 35 to 45 Mbq, iv by HPLC analysis; assay type: ADME, organism-based
smiles,measurement,setting,value
COc1ccc(COc2ccc(OCC[18F])cc2)cc1,Drug uptake,Stomach [1],1.08 %ID
same,Drug uptake,Intestine [2],7.09 %ID
same,Drug uptake,Stomach [3],0.78 %ID
same,Drug uptake,Intestine [4],4.41 %ID
same,logD,[5],3.65
same,Drug uptake,Liver [6],7.47 % ID/g
same,Drug uptake,Brain [7],9.95 % ID/g
same,Drug uptake,Stomach [8],0.77 %ID
same,Drug uptake,Intestine [9],13 %ID
same,Drug uptake,Stomach [10],1.22 %ID
same,Drug uptake,Intestine [11],7.66 %ID
COc1ccc(OCc2ccc(OCC[18F])cc2)cc1,Drug uptake,Stomach [1],0.96 %ID
same,Drug uptake,Intestine [2],7.31 %ID
same,Drug uptake,Stomach [3],1.29 %ID
same,Drug uptake,Intestine [4],4.83 %ID
same,logD,[5],3.05
same,Drug uptake,Liver [6],4.97 % ID/g
same,Drug uptake,Brain [7],7.54 % ID/g
same,Drug uptake,Stomach [8],0.98 %ID
same,Drug uptake,Intestine [9],10.75 %ID
same,Drug uptake,Stomach [10],1.32 %ID
same,Drug uptake,Intestine [11],6.85 %ID
CNc1ccc(/C=C/c2ccc(OCCOCCOCCF)nc2)cc1 [FLORBETAPIR],Ki,[12],11.4 nM
same,inhibition,[12],Dose-dependent effect
CNc1ccc(-c2nc3ccc(O)cc3s2)cc1,inhibition,[12],Dose-dependent effect
COc1ccc(COc2ccc(OCCOCCF)cc2)cc1,Ki,[12],438 nM
same,inhibition,[12],Dose-dependent effect
COc1ccc(OCc2ccc(OCCF)cc2)cc1,Ki,[12],153 nM
same,inhibition,[12],Dose-dependent effect
CN(C)c1ccc(OCc2ccc(OCC[18F])cc2)cc1,Drug uptake,Stomach [1],4.11 %ID
same,remaining at 2 min,[13],63.5%
same,Drug uptake,Intestine [2],5.49 %ID
same,remaining at 1 h,[14],5.1%
same,Drug uptake,Stomach [3],4.69 %ID
same,remaining at 0.5 h,[15],5.8%
same,Ratio,Brain [16],5.1
same,remaining at 2 min,[17],95.4%
same,remaining at 2 min,[18],56.5%
same,Drug uptake,Intestine [4],5.16 %ID
same,logD,[5],2.75
same,Drug uptake,Liver [6],6.38 % ID/g
same,remaining at 0.5 h,[19],9.2%
same,Drug uptake,Brain [7],9.14 % ID/g
same,remaining at 0.5 h,[20],22.7%
same,remaining at 0.5 h,[21],31.6%
same,remaining at 1 h,[22],14.8%
same,remaining at 1 h,[23],4.4%
same,Drug uptake,Stomach [8],3.58 %ID
same,Drug uptake,Intestine [9],6.71 %ID
same,Drug uptake,Stomach [10],2.48 %ID
same,Drug uptake,Intestine [11],5.63 %ID
CN(C)c1ccc(-c2cn3cc(I)ccc3n2)cc1,inhibition,[12],Dose-dependent effect
COc1ccc(COc2ccc(OCCOCCOCCF)cc2)cc1,Ki,[12],770 nM
same,inhibition,[12],Dose-dependent effect
CN(C)c1ccc(COc2ccc(OCCF)cc2)cc1,Activity,[24],inactive
same,Activity,[25],Active
same,Activity,[26],inactive
same,Activity,Mus musculus [27],inactive
same,Activity,Mus musculus [28],Active
same,Ki,[12],25.7 nM
same,inhibition,[12],Dose-dependent effect
same,Activity,Mus musculus [29],inactive
CNc1ccc(/C=C/c2ccc(OCCOCCOCC[18F])nc2)cc1 [FLORBETAPIR F 18],Ratio,Brain [30],3.9
CN(C)c1ccc(COc2ccc(OCCOCCOCCF)cc2)cc1,Ki,[12],358 nM
same,inhibition,[12],Dose-dependent effect
CN(C)c1ccc(OCc2ccc(OCCF)cc2)cc1,Activity,[24],inactive
same,Activity,Mus musculus [31],inactive
same,Activity,Mus musculus [32],inactive
same,Activity,[25],Active
same,Activity,[26],inactive
same,Activity,Mus musculus [27],inactive
same,Activity,Mus musculus [33],Active
same,Activity,Mus musculus [28],Active
same,Activity,Mus musculus [34],Active
same,Activity,Mus musculus [35],Active
same,Ki,[12],21 nM
same,inhibition,[12],Dose-dependent effect
same,Activity,Mus musculus [36],inactive
same,Activity,Mus musculus [29],inactive
COc1ccc(COc2ccc(OCCF)cc2)cc1,Ki,[12],119 nM
same,inhibition,[12],Dose-dependent effect
CN(C)c1ccc(COc2ccc(OCCOCCF)cc2)cc1,Ki,[12],191 nM
same,inhibition,[12],Dose-dependent effect
CN(C)c1ccc(COc2ccc(OCC[18F])cc2)cc1,Drug uptake,Stomach [1],0.54 %ID
same,remaining at 2 min,[13],22.6%
same,Drug uptake,Intestine [2],5.52 %ID
same,Drug uptake,Stomach [3],0.37 %ID
same,remaining at 2 min,[17],76.7%
same,Retention_time,Plasma,9.1 min
same,remaining at 2 min,[18],10.8%
same,Drug uptake,Intestine [4],3.12 %ID
same,logD,[5],3.11
same,Retention_time,Liver [37],9.1 min
same,Drug uptake,Liver [6],3.23 % ID/g
same,remaining at 0.5 h,[19],8.4%
same,Drug uptake,Brain [7],4.51 % ID/g
same,remaining at 0.5 h,[20],14.6%
same,remaining at 0.5 h,[21],20.6%
same,remaining at 1 h,[22],16.7%
same,remaining at 1 h,[23],10.6%
same,Drug uptake,Stomach [8],0.22 %ID
same,Drug uptake,Intestine [9],1.72 %ID
same,Drug uptake,Stomach [10],0.92 %ID
same,Drug uptake,Intestine [11],2.35 %ID
COc1ccc(COc2ccc(OCCOCCOCC[18F])cc2)cc1,Drug uptake,Stomach [1],1.1 %ID
same,Drug uptake,Intestine [2],6.3 %ID
same,Drug uptake,Stomach [3],1.52 %ID
same,Drug uptake,Intestine [4],6.18 %ID
same,logD,[5],3.04
same,Drug uptake,Liver [6],11.16 % ID/g
same,Drug uptake,Brain [7],9.71 % ID/g
same,Drug uptake,Stomach [8],0.9 %ID
same,Drug uptake,Intestine [9],26.12 %ID
same,Drug uptake,Stomach [10],1.53 %ID
same,Drug uptake,Intestine [11],16.43 %ID
